Test results: patent US20160074400A1, “WNT MODULATORS FOR THE PROTECTION, MITIGATION AND TREATMENT OF RADIATION INJURY” (University of Southern California, priority 2012, published 2016)

Assays:
murine intestinal crypts = experiment: Small intestinal crypt organoid culture ex vivo, replacement of Rspo1; assay type: cell-based; conditions: FIG. 5
Procedure: Small intestinal crypt organoid culture was performed using murine intestinal crypts essentially as described by Ootani et al (Nature Medicine; online publication doi:10.1038/nm.1951, 27 Apr. 2009)), and see also Sato et al (Nature Letters doi:10.1038/nature07935, 2009), both incorporated by reference herein in their entireties.

[1] = system: C57BL/6 mice exposed to whole body irradiation (RIGS); experiment: Survival (Kaplan-Meier) of mice after lethal whole body irradiation; assay type: in vivo; conditions: 10.4 Gy WBI; AdRspo1 5×10^9 particles/mice 1 hr and 48 hr post-IR, then ICG-001 150 mg/kg 72 hr post-IR; p<0.003
Procedure: C57BL/6 mice were treated with recombinant adenovirus expressing human Rspo1, AdRspo1 (5×10^9 particles/mice, 1 hr and 48 hr post-IR), followed by ICG-001 (150 mg/kg of body weight, 72 hr post-IR) after whole body irradiation (WBI) of 9.4-10.4 Gy. […] Expression of mRNA levels of β-Catenin target genes in crypt cells was determined by qRT-PCR.
To examine whether the purified recombinant hRspo1 could mitigate RIGS when administered along with ICG001, we treated C57BL/6 mice after 10.4 Gy of WBI with the combination of recombinant hRspo1+ICG-001. Specifically, C57BL/6 mice (n=10), exposed to 10.4 Gy single fraction WBI, were treated with hRspo1 (20 mg/kg of body weight s.c.) at 24 hr and 48 hr post-WBI. A separate cohort received sequential treatment of hRspo1 (24 hr and 48 hr post WBI) followed by ICG-001 (150 mg/kg of body weight, 72 hr post-IR).

[2] = system: asymmetric divisions in mitotic cells of the ventricular zone; experiment: In vivo Par3 distribution assay of asymmetric versus symmetric divisions; set-up: species or system mice; conditions: for number of asymmetric divisions: topical or oral administration to pregnant mice, compared to vehicle control
From the text: For example, Bultje et al. (Bultje R Neuron 63, 189-202, 2009) describe an assay to measure asymmetric distributions in the ventricular zone (vz) to evaluate asymmetric divisions during neurogenesis. Essentially this involves treating the animal (either adult or in utero) for a set period of time with compounds (either p.o., s.c., i.v. or topically) with compounds and then sacrificing the animal and examining the Par3 distribution (e.g., via immunohistochemistry) in mitotic cells vs. DNA distribution (e.g., using DAPI staining) Par3 distributes equally among the two daughter cells during symmetric division and unequally (essentially all in one daughter cell) during asymmetric differentiation.

[3] = system: Wnt pathway in 293T cells; experiment: TopFlash luciferase β-catenin activation test; assay type: cell-based; conditions: 24 hours in 1% FCS, alone and with Wnt3A, versus commercial Rspo1 from R&D biosystems
Procedure: The recombinant cDNA used was SEQ ID NO:11, encoding for recombinant human Rspo1 (SEQ ID NO:12, with StrepII tag). Activity of the purified recombinant Rspo1 was assayed using a β-catenin activation test.
Briefly, 293T cells were transfected with the reporter vector TopFlash, along with TK Renilla (transfection control) using lipofectamine 2000. After the transfection mixture was removed, cells were incubated in 0.1% FCS o/n, and then stimulated with the different inducers at the indicated concentrations in 1% FCS for 24 hours (FIG. 11).

[4] = system: mouse intestinal organoids; experiment: Intestinal organoid growth/maintenance assay; assay type: cell-based
Procedure: The recombinant human Rspo1 was also tested in an intestinal organoid growth/maintenance test. Self-renewal of the small intestinal and colonic epithelium is driven by the proliferation of stem cells and their progenitors; and their maintenance and growth in culture (ex-vivo) requires the activation of the Wnt pathway. Given that it is essential, only functional Rspo1 will be able to maintain the growth of intestinal organoids and lead to their maintenance and proliferation. FIGS. 12A and 12B show, according to particular exemplary aspects, testing of functionality of recombinant human Rspo1 in an intestinal organoid growth/maintenance assay.
Organoids were generated by culturing purified small intestinal crypts in matrigel in Advanced DMEM/F12 supplemented with 500 ng/ml R-spondin 1 [commercial (FIG. 12A) or recombinant (FIG. 12B)], 100 ng/ml EGF and 100 ng/ml Noggin.

Cc1c[nH]c(-c2cnc(NCCNc3ccc(C#N)cn3)nc2-c2ccc(Cl)cc2Cl)n1 [CHIR]
replacement of Rspo1 for maintenance of small intestinal crypt organoid cultures (murine intestinal crypts): can be used to replace (for at least up to 4 days) Rspo1

O=C1[C@H](Cc2ccc(O)cc2)N2C(=O)CCN(C(=O)NCc3ccccc3)[C@H]2CN1Cc1cccc2ccccc12 [ICG-001]
mice rescued from radiation lethality [1]: 60%
number of asymmetric divisions [2]: does not affect the number of asymmetric divisions
effect on the defect in asymmetric divisions caused by IQ-1 ([2]; treatment with excess ICG-001): corrects the defect in asymmetric divisions caused by IQ-1

CC(=O)c1ccc(N=NC(C(N)=O)=C2NC(C)(C)Cc3ccccc32)cc1 [IQ-1, reference compound]
number of symmetric divisions ([2]; pregnant mice): increases the number of symmetric divisions
number of asymmetric divisions [2]: decreases the number of asymmetric divisions

[Cl-].[Li+] [LiCl]
replacement of Rspo1 for maintenance of small intestinal crypt organoid cultures (murine intestinal crypts): can be used to replace (for at least up to 4 days) Rspo1

O=c1cc(-c2ccccc2)oc2ccc3ccccc3c12 [beta napthoflavone]
replacement of Rspo1 for maintenance of small intestinal crypt organoid cultures (murine intestinal crypts): can be used to replace (for at least up to 4 days) Rspo1

B1: recombinant human Rspo1: purified recombinant human R-spondin1, SEQ ID NO:12, with StrepII tag at the c-terminal end (protein)
chain: MRLGLCVVALVLSWTHLTISSRGIKGKRQRRISAEGSQACAKGCELCSEVNGCLKCSPKLFILLERNDIRQVGVCLPSCPPGYFDARNPDMNKCIKCKIEHCEACFSHNFCTKCKEGLYLHKGRCYPACPEGSSAANGTMECSSPAQCEMSEWSPWGPCSKKQQLCGFRRGSEERTRRVLHAPVGDHAACSDTKETRRCTVRRVPCPEGQKRRKGGQGRRENANRNLARKESKEAGAGSRRRKGQQQQQQQGTVGPLTSAGPAESAWSHPQFEK
modifications: C-terminal StrepII tag; human Rspo1 protein variant with SrepII tag (ESAWSHPQFEK) at c-terminus
activation of β-catenin (TopFlash luciferase) [3]: capable of activating β-catenin by itself and synergizing with Wnt (e.g., Wnt3A) as well as, if not better, than the commercially obtained Rspo1
ability to maintain and induce sprouting (proliferation) of the organoids, versus commercial protein ([4]; 500 ng/ml R-spondin 1): identical to the commercial protein
maintenance of growth and proliferation of intestinal organoids ([4]; 500 ng/ml R-spondin 1, 100 ng/ml EGF, 100 ng/ml Noggin, matrigel): capable of maintaining the growth and proliferation of mouse intestinal organoids in culture
